Laboratory results: ChEMBL document CHEMBL2177041, “Identification of new potent GPR119 agonists by combining virtual screening and combinatorial chemistry” (J Med Chem, 2012)

What was measured:
[1] = target: T1, Glucose-dependent insulinotropic receptor (Homo sapiens) (UniProt Q8TDV5); test: Intrinsic activity at human GPR119 expressed in MIN6 cells assessed as intracellular cAMP level after 45 mins by ALPHAscreen cAMP assay relative to N-(4-methanesulfonylphenyl)-5-nitro-6-[4-(phenylsulfanyl)piperidin-1-yl]pyrimidin-4-amine; format: functional, cell-based
T1 sequence (whole entry): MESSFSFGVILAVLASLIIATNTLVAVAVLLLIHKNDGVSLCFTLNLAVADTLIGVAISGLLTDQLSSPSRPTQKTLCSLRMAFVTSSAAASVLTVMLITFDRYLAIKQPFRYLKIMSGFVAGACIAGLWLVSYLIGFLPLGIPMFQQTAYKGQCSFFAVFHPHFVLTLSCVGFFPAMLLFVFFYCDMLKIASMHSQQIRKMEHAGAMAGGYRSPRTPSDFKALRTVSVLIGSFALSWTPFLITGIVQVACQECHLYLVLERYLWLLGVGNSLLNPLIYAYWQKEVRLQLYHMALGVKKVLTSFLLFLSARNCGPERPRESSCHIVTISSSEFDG

[2] = target: T2, Glucose-dependent insulinotropic receptor (Homo sapiens, UniProt Q8TDV5); test: Agonist activity at human GPR119 expressed in MIN6 cells assessed as intracellular cAMP level after 45 mins by ALPHAscreen cAMP assay; format: functional, cell-based
T2 sequence (Q8TDV5 whole entry): T1 sequence (whole entry)

| Structure (SMILES) | Intrinsic activity [1] [%] | EC50 [2] [µM] |
| --- | --- | --- |
| N#Cc1cc(F)c(NC(=O)C2=NOC3(CCN(c4nc(-c5ccccc5)no4)CC3)C2)cc1F | 173 | 0.03 |
| CC(C)(C)OC(=O)N1CCC2(CCN(C(=O)Nc3ccc(S(C)(=O)=O)cc3Br)CC2)CC1 | 165 | 0.8 |
| C[S+]([O-])c1cc(F)c(NC(=O)C2=NOC3(CCN(c4nc(-c5ccccc5)no4)CC3)C2)cc1F (stereo not drawn) | 160 | 0.021 |
| CC(C)(C)OC(=O)N1CCC2(CC1)CC(C(=O)Nc1cc(F)c(C#N)cc1F)=NO2 | 170 | 0.093 |
